Results published in US20160206688A1, “METHODS FOR TREATING BACTEREMIA AND OSTEOMYELITIS USING ORITAVANCIN” (THE MEDICINES COMPANY, priority 2013, published 2016).
≈ marks a conversion by molar mass, not a printed value. Read-outs that look alike come from different tables or passages of the source.

What was measured:
[1] = tested on: Coagulase-negative staphylococci; experiment: Broth microdilution MIC, European bacteraemia isolates 2010-2012; type: cell-based, coagulase-negative staphylococci (CoNS)
In short: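 Bacteraemia isolates from European, Israeli, Russian, Turkish and Ukrainian hospitals (2010-2012) tested centrally by CLSI M07-A9 broth microdilution in cation-adjusted Mueller-Hinton broth with 0.002% polysorbate-80. QC strains E. faecalis ATCC 29212 and S. aureus ATCC 29213; interpretation per CLSI M100-S23 and EUCAST 2013.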

[2] = tested on: exponentially-growing S. aureus; conditions: within 15 minutes to 2 hours; MSSA, MRSA, and VRSA; cited from earlier work
MDR SA = experiment: Microdilution MIC against MDR SA by specimen source; type: cell-based, S. aureus
Method: 456 clinical, single-patient, non-consecutive, MDR SA isolates from the known specimen sources collected in 2011-2012 were analyzed. MDR was defined as resistant to ≧3 of the following: erythromycin, clindamycin, gentamicin, levofloxacin, and trimethoprim/sulfamethoxazole. 382 were MRSA and 74 were MSSA. MICs were determined by microdilution testing in accordance with CLSI M7 and M100 guidelines. Although other comparator drugs were tested, this analysis focuses on the activities of ORI, VAN, DAP, and LZD.

E. faecium = experiment: Broth microdilution MIC, US isolates 2011-2012, blood vs non-blood; type: cell-based
Method: (§1) 527 E. faecalis, 176 E. faecium, and 790 BHS (335 S. pyogenes and 455 S. agalactiae) clinical, single patient, non-consecutive isolates were collected in 2011-2012 from 46 sites geographically distributed across the United States. The MICs were determined by broth microdilution testing performed in accordance with CLSI M7 and M100 guidelines. From the resulting database, this analysis focused on the activities of ORI, vancomycin (VAN), daptomycin (DAP), and linezolid (LZD) according to specimen source.

E. faecalis = experiment: as above; type: cell-based
Method: as §1

S. pyogenes = experiment: as above; type: cell-based
Method: as §1

S. agalactiae = experiment: as above; type: cell-based
Method: as §1

[3] = CoNS, Methicillin-resistant (509), at ≦0.008 mg/L
[4] = CoNS, Methicillin-susceptible (137), at ≦0.008 mg/L
[5] = CoNS, Teicoplanin MIC ≧8 mg/L (72), at ≦0.008 mg/L
[6] = Table 1, CoNS, Methicillin-resistant (509)
[7] = Table 1, CoNS, Methicillin-susceptible (137)
[8] = Table 2, Coagulase-negative staphylococci (646)
[9] = read-out: cumulative % inhibited at MIC

## CN[C@H](CC(C)C)C(=O)N[C@H]1C(=O)N[C@@H](CC(N)=O)C(=O)N[C@H]2C(=O)N[C@H]3C(=O)N[C@H](C(=O)N[C@H](C(=O)O)c4cc(O)cc(O)c4-c4cc3ccc4O)[C@H](O[C@H]3C[C@](C)(N)[C@@H](O)[C@H](C)O3)c3ccc(c(Cl)c3)Oc3cc2cc(c3O[C@@H]2O[C@H](CO)[C@@H](O)[C@H](O)[C@H]2O[C@H]2C[C@](C)(NCc3ccc(-c4ccc(Cl)cc4)cc3)[C@@H](O)[C@H](C)O2)Oc2ccc(cc2Cl)[C@H]1O [Oritavancin, N-(4-(4-chlorophenyl)benzyl)A82846B]
[1]
  MIC50: 0.03 µg/mL (≈ 0.0167 µM)
  MIC90: 0.06 µg/mL (≈ 0.0335 µM)
[1]; CoNS isolates
  MIC50 and MIC90 lower than linezolid: 16 fold
  MIC values lower than vancomycin: 32- to 64 fold
[1]; CoNS with decreased susceptibility to teicoplanin (MIC≧8 mg/L)
  MIC results relative to strains with teicoplanin MIC≦4 mg/L: two-fold higher
[1]; CoNS with decreased susceptibility to teicoplanin (MIC≧8 mg/L), read-out: highest MIC value
  MIC: 0.25 µg/mL (≈ 0.139 µM)
[1]; CoNS, Methicillin-resistant (509), at 0.015 mg/L
  Number inhibited at MIC: 77
[1]; CoNS, Methicillin-resistant (509), at 0.03 mg/L
  Number inhibited at MIC: 181
[1]; CoNS, Methicillin-resistant (509), at 0.06 mg/L
  Number inhibited at MIC: 114
[1]; CoNS, Methicillin-resistant (509), at 0.12 mg/L
  Number inhibited at MIC: 33
[1]; CoNS, Methicillin-resistant (509), at 0.25 mg/L
  Number inhibited at MIC: 4
[1]; [3]
  Number inhibited at MIC: 100
  cumulative % inhibited at MIC: 19.7%
[1]; CoNS, Methicillin-susceptible (137), at 0.015 mg/L
  Number inhibited at MIC: 28
[1]; CoNS, Methicillin-susceptible (137), at 0.03 mg/L
  Number inhibited at MIC: 50
[1]; CoNS, Methicillin-susceptible (137), at 0.06 mg/L
  Number inhibited at MIC: 21
[1]; CoNS, Methicillin-susceptible (137), at 0.12 mg/L
  Number inhibited at MIC: 1
[1]; [4]
  Number inhibited at MIC: 37
  cumulative % inhibited at MIC: 27.0%
[1]; CoNS, Teicoplanin MIC ≧8 mg/L (72), at 0.015 mg/L
  Number inhibited at MIC: 1
[1]; CoNS, Teicoplanin MIC ≧8 mg/L (72), at 0.015 mg/L, read-out: cumulative % inhibited at MIC
  inhibition at 0.015 µg/mL: 2.8%
[1]; CoNS, Teicoplanin MIC ≧8 mg/L (72), at 0.03 mg/L
  Number inhibited at MIC: 15
[1]; CoNS, Teicoplanin MIC ≧8 mg/L (72), at 0.03 mg/L, read-out: cumulative % inhibited at MIC
  inhibition at 0.03 µg/mL: 23.6%
[1]; CoNS, Teicoplanin MIC ≧8 mg/L (72), at 0.06 mg/L
  Number inhibited at MIC: 36
[1]; CoNS, Teicoplanin MIC ≧8 mg/L (72), at 0.06 mg/L, read-out: cumulative % inhibited at MIC
  inhibition at 0.06 µg/mL: 73.6%
[1]; CoNS, Teicoplanin MIC ≧8 mg/L (72), at 0.12 mg/L
  Number inhibited at MIC: 15
[1]; CoNS, Teicoplanin MIC ≧8 mg/L (72), at 0.12 mg/L, read-out: cumulative % inhibited at MIC
  inhibition at 0.12 µg/mL: 94.4%
[1]; CoNS, Teicoplanin MIC ≧8 mg/L (72), at 0.25 mg/L
  Number inhibited at MIC: 4
[1]; CoNS, Teicoplanin MIC ≧8 mg/L (72), at 0.25 mg/L, read-out: cumulative % inhibited at MIC
  inhibition at 0.25 µg/mL: 100%
[1]; [5]
  Number inhibited at MIC: 1
  cumulative % inhibited at MIC: 1.4%
[1]; [6]
  MIC50: 0.03 µg/mL (≈ 0.0167 µM)
  MIC90: 0.06 µg/mL (≈ 0.0335 µM)
[1]; [7]
  MIC50: 0.03 µg/mL (≈ 0.0167 µM)
  MIC90: 0.06 µg/mL (≈ 0.0335 µM)
[1]; Table 1, CoNS, Teicoplanin MIC ≧8 mg/L (72), read-out: MIC 50%
  MIC50: 0.06 µg/mL (≈ 0.0335 µM)
[1]; Table 1, CoNS, Teicoplanin MIC ≧8 mg/L (72), read-out: MIC 90%
  MIC90: 0.12 µg/mL (≈ 0.0669 µM)
[1]; [8]
  MIC50: 0.03 µg/mL (≈ 0.0167 µM)
  MIC90: 0.06 µg/mL (≈ 0.0335 µM)
  MIC Range: ≦0.008-0.25 mg/L
[1]; [9]
  inhibition at 0.015 µg/mL: 41.8%
  inhibition at 0.03 µg/mL: 79.4%
  inhibition at 0.06 µg/mL: 96.7%
  inhibition at 0.12 µg/mL: 100%
[1]; read-out: cumulative % inhibited at MIC, CoNS, Methicillin-resistant (509), at 0.015 mg/L
  inhibition at 0.015 µg/mL: 34.8%
[1]; read-out: cumulative % inhibited at MIC, CoNS, Methicillin-resistant (509), at 0.03 mg/L
  inhibition at 0.03 µg/mL: 70.3%
[1]; read-out: cumulative % inhibited at MIC, CoNS, Methicillin-resistant (509), at 0.06 mg/L
  inhibition at 0.06 µg/mL: 92.7%
[1]; read-out: cumulative % inhibited at MIC, CoNS, Methicillin-resistant (509), at 0.12 mg/L
  inhibition at 0.12 µg/mL: 99.2%
[1]; read-out: cumulative % inhibited at MIC, CoNS, Methicillin-resistant (509), at 0.25 mg/L
  inhibition at 0.25 µg/mL: 100%
[1]; read-out: cumulative % inhibited at MIC, CoNS, Methicillin-susceptible (137), at 0.015 mg/L
  inhibition at 0.015 µg/mL: 47.5%
[1]; read-out: cumulative % inhibited at MIC, CoNS, Methicillin-susceptible (137), at 0.03 mg/L
  inhibition at 0.03 µg/mL: 83.9%
[1]; read-out: cumulative % inhibited at MIC, CoNS, Methicillin-susceptible (137), at 0.06 mg/L
  inhibition at 0.06 µg/mL: 99.3%
[1]; read-out: cumulative % inhibited at MIC, CoNS, Methicillin-susceptible (137), at 0.12 mg/L
  inhibition at 0.12 µg/mL: 100%
[2]
  reduction (bactericidal activity): ≥ 3 log
MDR SA; Blood, n = 108
  MIC50: 0.03 µg/mL (≈ 0.0167 µM)
  MIC90: 0.12 µg/mL (≈ 0.0669 µM)
  Mode (MIC): 0.03 µg/mL
MDR SA; Blood, n = 108, in µg/mL
  Range (MIC): 0.015-0.25
MDR SA; Respiratory, N = 157
  MIC50: 0.03 µg/mL (≈ 0.0167 µM)
  MIC90: 0.06 µg/mL (≈ 0.0335 µM)
  Mode (MIC): 0.03 µg/mL
MDR SA; Respiratory, N = 157, in µg/mL
  Range (MIC): 0.008-0.25
MDR SA; Skin/Wound, N = 191
  MIC50: 0.03 µg/mL (≈ 0.0167 µM)
  MIC90: 0.06 µg/mL (≈ 0.0335 µM)
  Mode (MIC): 0.03 µg/mL
  Range (MIC): ≦0.002-0.25
E. faecium; Blood, N 84
  MIC90: 0.12 µg/mL (≈ 0.0669 µM)
E. faecium; Non-Blood, N 92
  MIC90: 0.12 µg/mL (≈ 0.0669 µM)
E. faecalis; Blood, N 116
  MIC90: 0.06 µg/mL (≈ 0.0335 µM)
E. faecalis; Non-Blood, N 411
  MIC90: 0.06 µg/mL (≈ 0.0335 µM)
S. pyogenes; Blood, N 53
  MIC90: 0.25 µg/mL (≈ 0.139 µM)
S. pyogenes; Non-Blood, N 282
  MIC90: 0.25 µg/mL (≈ 0.139 µM)
S. agalactiae; Blood, N 100
  MIC90: 0.25 µg/mL (≈ 0.139 µM)
S. agalactiae; Non-Blood, N 355
  MIC90: 0.25 µg/mL (≈ 0.139 µM)
